From US4459290A, “C-23-Modified derivatives of OMT, pharmaceutical compositions and method of use” (priority 1982, dated 1984)
Values after ≈ are worked out from the molar mass of the structure shown. Read-outs that look alike come from different tables or passages of the source.

Assays:
Proteus rettgeri C24 = assay: MIC, standard agar-dilution assay (Table VI); assay type: cell-based; details: Providencia rettgeri, P. rettgeri C24
Protocol: (§1) Especially noteworthy is the improved activity against gram-negative bacteria for several derivatives when compared to the activity of OMT. […] The MIC's in Tables V and VI were determined by standard agar-dilution assays. The MIC's in Table VII were obtained using a conventional broth-dilution microtiter test.

Proteus morganii PR15 = assay: MIC, standard agar-dilution assay (Table VI); assay type: cell-based; details: Morganella morganii
Summary of the method: (§2)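 Growth inhibition in liquid medium, in a routine microtiter broth-dilution series, gave the MIC against staphylococci and pasteurellae; the gram-negative enteric strain was tested by conventional agar dilution instead.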

Serratia marcescens SE3 = assay: MIC, standard agar-dilution assay (Table VI); assay type: cell-based
Summary of the method: as §2

Serratia marcescens X99 = assay: MIC, standard agar-dilution assay (Table VI); assay type: cell-based
Protocol: as §1

[1] = test system: Pseudomonas aeruginosa X528; assay: MIC, standard agar-dilution assay (Table VI); assay type: cell-based
Protocol: as §1

[2] = test system: Enterobacter aerogenes EB17; assay: MIC, standard agar-dilution assay (Table VI); assay type: cell-based; details: Klebsiella aerogenes
Summary of the method: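 Serial compound dilutions were incorporated into agar for testing E. aerogenes. Dilutions in broth, arranged in microtiter wells, were used for S. aureus and P. multocida.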

[3] = test system: Streptococcus pyogenes C203; assay: MIC, standard agar-dilution assay (Table V); assay type: cell-based; details: Streptococcus pyogenes
Protocol: (§3) The MIC's in Tables V and VI were determined by standard agar-dilution assays. The MIC's in Table VII were obtained using a conventional broth-dilution microtiter test.

[4] = test system: Haemophilus influenzae R252; assay: MIC, standard agar-dilution assay (Table V); assay type: cell-based; details: Haemophilus influenzae
Protocol: as §3

[5] = test system: Haemophilus influenzae Holt; assay: MIC, standard agar-dilution assay (Table V); assay type: cell-based; details: Haemophilus influenzae
Protocol: as §3

Escherichia coli TEM = assay: MIC, standard agar-dilution assay (Table V); assay type: cell-based; details: Escherichia coli
Protocol: as §3

[6] = test system: Streptococcus pneumoniae Park I; assay: microbe, parasite or virus in culture; assay type: cell-based; details: Streptococcus pneumoniae, read-out: MIC
Protocol: as §1

Pasteurella multocida = assay: Protection of one-day-old chicks against Pasteurella multocida infection (Table IX); assay type: in vivo; details: subcutaneous 30 mg/kg × 2, 1 and 4 hours post-challenge
Summary of the method: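 One-day-old chicks were challenged subcutaneously with 0.1 ml of a twenty-hour tryptose broth culture of avian P. multocida. Compound was given subcutaneously at 30 mg/kg, 1 and 4 hours post-challenge, and protection against death was followed, with non-medicated infected chicks as controls.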

[7] = P. morganii PR15, agar dilution, read-out: MIC
[8] = S. marcescens SE3, agar dilution, read-out: MIC
[9] = S. marcescens X99, agar dilution, read-out: MIC
[10] = P. aeruginosa X528, agar dilution, read-out: MIC
[11] = E. aerogenes EB17, agar dilution, read-out: MIC
[12] = S. pyogenes C203, agar dilution, read-out: MIC
[13] = H. influenzae Holt, ampicillin-sensitive strain, agar dilution, read-out: MIC
[14] = H. influenzae R252, ampicillin-resistant strain, agar dilution, read-out: MIC
[15] = E. coli TEM, agar dilution, read-out: MIC

SMILES: CCC1OC(=O)CC(O)C(C)C(OC2OC(C)C(O)C(N(C)C)C2O)C(CC=O)CC(C)C(=O)C=CC(C)=CC1CF (stereo not shown) [Compound 15, 23-Deoxy-23-fluoro-OMT]
- MIC (Proteus rettgeri C24): 32 µg/mL (≈ 53.4 µM)
- MIC (Proteus morganii PR15; [7]): 64 µg/mL (≈ 107 µM)
- MIC (Serratia marcescens SE3; [8]): > 128 µg/mL
- MIC (Serratia marcescens X99; [9]): 64 µg/mL (≈ 107 µM)
- MIC [1, 10]: 16 µg/mL (≈ 26.7 µM)
- MIC [2, 11]: 64 µg/mL (≈ 107 µM)
- MIC [3, 12]: 0.125 µg/mL (≈ 0.208 µM)
- MIC ([4]; R252): 0.5 µg/mL (≈ 0.834 µM)
- MIC [5, 13]: 1 µg/mL (≈ 1.67 µM)
- MIC (Escherichia coli TEM): 8 µg/mL (≈ 13.3 µM)
- MIC ([6]; S. pneumoniae Park I, agar dilution): 0.125 µg/mL (≈ 0.208 µM)

SMILES: CCC1OC(=O)CC(O)C(C)C(OC2OC(C)C(O)C(N(C)C)C2O)C(CC=O)CC(C)C(=O)C=CC(C)=CC1CSc1ccccc1 (stereo not shown) [Compound 2, 23-Deoxy-23-(phenyl)thio-OMT]
- MIC (Proteus rettgeri C24): 16 µg/mL (≈ 23.2 µM)
- MIC (Proteus morganii PR15; [7]): 8 µg/mL (≈ 11.6 µM)
- MIC (Serratia marcescens SE3; [8]): 64 µg/mL (≈ 92.8 µM)
- MIC (Serratia marcescens X99; [9]): 64 µg/mL (≈ 92.8 µM)
- MIC ([1]; X528): 16 µg/mL (≈ 23.2 µM)
- MIC ([2]; EB17): 32 µg/mL (≈ 46.4 µM)
- Number of deaths/number treated (Pasteurella multocida): 10/10
- MIC [3, 12]: 0.015 µg/mL (≈ 0.0217 µM)
- MIC [4, 14]: 1 µg/mL (≈ 1.45 µM)
- MIC [5, 13]: 1 µg/mL (≈ 1.45 µM)
- MIC (Escherichia coli TEM): 8 µg/mL (≈ 11.6 µM)
- MIC [6]: 0.06 µg/mL (≈ 0.087 µM)

SMILES: CCC1OC(=O)CC(O)C(C)C(OC2OC(C)C(O)C(N(C)C)C2O)C(CC=O)CC(C)C(=O)C=CC(C)=CC1CSc1nnc(C)s1 (stereo not shown) [Compound 3, 23-Deoxy-23-(5-methyl-1,3,4-thiadiazol-2-yl)thio-OMT]
- MIC (Proteus rettgeri C24): 64 µg/mL (≈ 89.9 µM)
- MIC (Proteus morganii PR15; PR15): 64 µg/mL (≈ 89.9 µM)
- MIC (Serratia marcescens SE3; [8]): > 128 µg/mL
- MIC (Serratia marcescens X99; [9]): > 128 µg/mL
- MIC ([1]; X528): 64 µg/mL (≈ 89.9 µM)
- MIC [2, 11]: > 128 µg/mL
- Number of deaths/number treated (Pasteurella multocida): 10/10
- MIC ([3]; C203): 0.125 µg/mL (≈ 0.176 µM)
- MIC [4, 14]: 2 µg/mL (≈ 2.81 µM)
- MIC [5]: 2 µg/mL (≈ 2.81 µM)
- MIC (Escherichia coli TEM; [15]): 32 µg/mL (≈ 44.9 µM)
- MIC [6]: 0.06 µg/mL (≈ 0.0843 µM)

SMILES: CCC1OC(=O)CC(O)C(C)C(OC2OC(C)C(O)C(N(C)C)C2O)C(CC=O)CC(C)C(=O)C=CC(C)=CC1CSc1nnnn1C (stereo not shown) [Compound 5, 23-Deoxy-23-(1-methyltetrazol-5-yl)thio-OMT]
- MIC (Proteus rettgeri C24): 64 µg/mL (≈ 92 µM)
- MIC (Proteus morganii PR15; PR15): > 128 µg/mL
- MIC (Serratia marcescens SE3; SE3): > 128 µg/mL
- MIC (Serratia marcescens X99; X99): > 128 µg/mL
- MIC ([1]; X528): 64 µg/mL (≈ 92 µM)
- MIC ([2]; EB17): > 128 µg/mL
- Number of deaths/number treated (Pasteurella multocida): 3/10
- MIC ([3]; C203): 0.25 µg/mL (≈ 0.359 µM)
- MIC ([4]; R252): 2 µg/mL (≈ 2.87 µM)
- MIC [5]: 4 µg/mL (≈ 5.75 µM)
- MIC (Escherichia coli TEM; [15]): 32 µg/mL (≈ 46 µM)
- MIC [6]: 0.06 µg/mL (≈ 0.0862 µM)

SMILES: CCC1OC(=O)CC(O)C(C)C(OC2OC(C)C(O)C(N(C)C)C2O)C(CC=O)CC(C)C(=O)C=CC(C)=CC1CSC(C)=O (stereo not shown) [Compound 7, 23-Deoxy-23-(acetyl)thio-OMT]
- MIC (Proteus rettgeri C24): 64 µg/mL (≈ 97.6 µM)
- MIC (Proteus morganii PR15; PR15): > 128 µg/mL
- MIC (Serratia marcescens SE3; SE3): > 128 µg/mL
- MIC (Serratia marcescens X99; X99): > 128 µg/mL
- MIC [1, 10]: 32 µg/mL (≈ 48.8 µM)
- MIC ([2]; EB17): > 128 µg/mL
- Number of deaths/number treated (Pasteurella multocida): 10/10
- MIC ([3]; C203): 0.25 µg/mL (≈ 0.381 µM)
- MIC ([4]; R252): 2 µg/mL (≈ 3.05 µM)
- MIC [5, 13]: 1 µg/mL (≈ 1.52 µM)
- MIC [6]: 0.06 µg/mL (≈ 0.0915 µM)

SMILES: CCC1OC(=O)CC(O)C(C)C(OC2OC(C)C(O)C(N(C)C)C2O)C(CC=O)CC(C)C(=O)C=CC(C)=CC1CN=[N+]=[N-] (stereo not shown) [Compound 8, 23-Deoxy-23-azido-OMT]
- MIC (Proteus rettgeri C24): 32 µg/mL (≈ 51.4 µM)
- MIC (Proteus morganii PR15; PR15): 64 µg/mL (≈ 103 µM)
- MIC (Serratia marcescens SE3; [8]): > 128 µg/mL
- MIC (Serratia marcescens X99; X99): 64 µg/mL (≈ 103 µM)
- MIC [1, 10]: 16 µg/mL (≈ 25.7 µM)
- MIC ([2]; EB17): 64 µg/mL (≈ 103 µM)
- Number of deaths/number treated (Pasteurella multocida): 10/10
- MIC ([3]; C203): 0.125 µg/mL (≈ 0.201 µM)
- MIC ([4]; R252): 1 µg/mL (≈ 1.61 µM)
- MIC [5]: 1 µg/mL (≈ 1.61 µM)
- MIC (Escherichia coli TEM): 16 µg/mL (≈ 25.7 µM)
- MIC [6]: 0.06 µg/mL (≈ 0.0963 µM)
